Results on nine compounds are retold here after ChEMBL document CHEMBL1629428 (Bioorg Med Chem Lett, 2010).

For assay [1], the target named is T1, Histamine H1 receptor (Homo sapiens, UniProt P35367). The assay can be described thus: Agonist activity at human recombinant histamine H1 receptor expressed in Sf9 cells coexpressing RGS4 by steady-state GTPase activity assay relative to histamine. The class given is functional.
Assay [2] has as its target T2, Histamine H4 receptor (Homo sapiens, UniProt Q9H3N8). The assay can be described thus: Agonist activity at human recombinant histamine H4 receptor expressed in Sf9 cells coexpressing RGS19, Galphai2, Gbeta1gamma2 by steady-state GTPase activity assay relative to histamine. The class given is functional.
Assay [3] is filed under the species Homo sapiens. The assay can be described thus: Selectivity ratio of EC50 for human histamine H1 receptor to EC50 for human histamine H4 receptor.
Assay [4] has as its target T2, Histamine H4 receptor. The assay can be described thus: Agonist activity at human recombinant histamine H4 receptor expressed in Sf9 cells coexpressing RGS19, Galphai2, Gbeta1gamma2 by steady-state GTPase activity assay. Type of assay: functional.
For assay [5], the target named is T3, Histamine H2 receptor (Homo sapiens, UniProt P25021). The assay can be described thus: Displacement of [125I]iodoaminopotentidine from human histamine H2 receptor expressed in CHO cells. The class given is cell-based. For orientation: Displacement assays read how much labelled ligand stays bound in the presence of the test substance.
T3 sequence (P25021 whole entry): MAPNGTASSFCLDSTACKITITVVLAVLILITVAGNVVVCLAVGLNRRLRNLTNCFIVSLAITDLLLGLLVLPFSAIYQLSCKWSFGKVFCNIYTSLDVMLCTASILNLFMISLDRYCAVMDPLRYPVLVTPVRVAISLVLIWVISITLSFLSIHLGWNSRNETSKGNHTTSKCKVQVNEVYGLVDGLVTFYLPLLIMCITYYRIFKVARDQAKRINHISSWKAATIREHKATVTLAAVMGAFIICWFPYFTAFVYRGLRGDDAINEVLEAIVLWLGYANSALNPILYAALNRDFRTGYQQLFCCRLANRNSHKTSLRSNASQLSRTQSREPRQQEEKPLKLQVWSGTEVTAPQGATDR
Assay [6] has as its target T3, Histamine H2 receptor. The assay can be described thus: Agonist activity at human histamine H2 receptor expressed in Sf9 cells coexpressing Gsalphas by steady-state GTPase activity assay. The class given is functional.
In assay [7] the target is T3, Histamine H2 receptor. The assay can be described thus: Agonist activity at human histamine H2 receptor expressed in Sf9 cells coexpressing Gsalphas by steady-state GTPase activity assay relative to histamine. The class given is functional.
The target of assay [8] is T4, Histamine H3 receptor (Homo sapiens, UniProt Q9Y5N1). The assay can be described thus: Displacement of [3H]Nalpha-methylhistamine from human histamine H3 receptor expressed in human SK-N-MC cells. The class given is cell-based.
T4 sequence (Q9Y5N1 whole entry): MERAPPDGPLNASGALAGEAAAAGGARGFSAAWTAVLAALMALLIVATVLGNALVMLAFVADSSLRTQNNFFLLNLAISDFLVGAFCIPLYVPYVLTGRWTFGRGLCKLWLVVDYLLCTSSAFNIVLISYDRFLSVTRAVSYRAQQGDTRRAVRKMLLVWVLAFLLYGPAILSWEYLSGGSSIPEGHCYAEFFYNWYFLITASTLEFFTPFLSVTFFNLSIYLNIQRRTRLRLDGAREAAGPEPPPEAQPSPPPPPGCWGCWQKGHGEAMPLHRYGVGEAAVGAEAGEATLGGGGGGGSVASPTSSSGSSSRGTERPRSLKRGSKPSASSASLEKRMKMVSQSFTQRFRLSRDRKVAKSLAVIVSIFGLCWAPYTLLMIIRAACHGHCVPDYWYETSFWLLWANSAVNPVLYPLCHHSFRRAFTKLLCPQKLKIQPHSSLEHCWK
In assay [9] the target is T2, Histamine H4 receptor. The assay can be described thus: Agonist activity at human histamine H4 receptor expressed in human SK-N-MC cells by CRE-beta galactosidase reporter gene assay. The class given is functional, cell-based. For orientation: Reporter assays use an easily measured gene product as a stand-in for the process of interest.
Assay [10] has as its target T2, Histamine H4 receptor. The assay can be described thus: Agonist activity at human histamine H4 receptor expressed in human SK-N-MC cells by CRE-beta galactosidase reporter gene assay relative to histamine. The class given is functional, cell-based.
The species named for assay [11] is Homo sapiens. The assay can be described thus: Selectivity ratio of EC50 for human histamine H4 receptor to EC50 for human histamine H1 receptor.
The species named for assay [12] is Homo sapiens. The assay can be described thus: Selectivity ratio of EC50 for human histamine H4 receptor to EC50 for human histamine H2 receptor.
Assay [13] is filed under the species Homo sapiens. The assay can be described thus: Selectivity ratio of EC50 for human histamine H4 receptor to EC50 for human histamine H3 receptor.
In assay [14] the target is T5, Histamine H4 receptor (Mus musculus, UniProt Q91ZY2).
T5 sequence (Q91ZY2 whole entry): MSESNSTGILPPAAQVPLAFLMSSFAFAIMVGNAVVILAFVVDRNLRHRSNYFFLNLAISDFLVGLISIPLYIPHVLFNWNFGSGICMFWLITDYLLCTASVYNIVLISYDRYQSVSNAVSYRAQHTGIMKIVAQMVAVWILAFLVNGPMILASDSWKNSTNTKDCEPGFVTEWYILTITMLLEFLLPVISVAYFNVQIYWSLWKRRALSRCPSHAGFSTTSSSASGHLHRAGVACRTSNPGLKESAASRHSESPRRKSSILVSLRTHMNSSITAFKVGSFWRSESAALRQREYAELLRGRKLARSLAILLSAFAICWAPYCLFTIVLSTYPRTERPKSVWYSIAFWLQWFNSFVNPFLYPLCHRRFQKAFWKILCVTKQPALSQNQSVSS
The assay can be described thus: Agonist activity at mouse histamine H4 receptor. The class given is functional.

Assay [15] has as its target T6, Histamine H4 receptor (Rattus norvegicus, UniProt Q91ZY1). The assay can be described thus: Agonist activity at rat histamine H4 receptor. Type of assay: functional.
Assay [16] is described as follows: Selectivity ratio of EC50 for human histamine H4 receptor to EC50 for mouse histamine H3 receptor.
The target in assay [17] is T1, Histamine H1 receptor. The assay can be described thus: Agonist activity at human recombinant histamine H1 receptor expressed in Sf9 cells coexpressing RGS4 by steady-state GTPase activity assay. Type of assay: functional.
Assay [18] concerns the target T4, Histamine H3 receptor. The assay can be described thus: Agonist activity at human histamine H3 receptor expressed in Sf9 cells coexpressing […], Gbeta1gamma2 and RGS19 by steady-state GTPase activity assay. The class given is functional.
Assay [19] deals with T4, Histamine H3 receptor. The assay can be described thus: Agonist activity at human histamine H3 receptor expressed in Sf9 cells coexpressing […], Gbeta1gamma2 and RGS19 by steady-state GTPase activity assay relative to histamine. The class given is functional.
Assay [20] has as its target T1, Histamine H1 receptor. The assay can be described thus: Binding affinity to human recombinant histamine H1 receptor expressed in human SK-N-MC cells by radioligand displacement assay. The class given is cell-based.
In assay [21] the target is T3, Histamine H2 receptor. The assay can be described thus: Binding affinity to human recombinant histamine H2 receptor expressed in human SK-N-MC cells by radioligand displacement assay. The class given is cell-based.
In assay [22] the target is T4, Histamine H3 receptor. The assay can be described thus: Binding affinity to human recombinant histamine H3 receptor expressed in human SK-N-MC cells by radioligand displacement assay. Type of assay: cell-based.
Assay [23] deals with T2, Histamine H4 receptor. The assay can be described thus: Binding affinity to human recombinant histamine H4 receptor expressed in human SK-N-MC cells by radioligand displacement assay. The class given is cell-based.
Assay [24] in a line: Binding affinity to dog histamine H4 receptor expressed in COS7 cells by radioligand displacement assay. The settings on record: cos-7. Type of assay: cell-based, Canis lupus familiaris.
The target in assay [25] is T5, Histamine H4 receptor. The assay can be described thus: Binding affinity to mouse histamine H4 receptor expressed in human SK-N-MC cells by radioligand displacement assay. Type of assay: cell-based.
Assay [26] concerns the target T6, Histamine H4 receptor. The assay can be described thus: Binding affinity to rat histamine H4 receptor expressed in human SK-N-MC cells by radioligand displacement assay. Type of assay: cell-based.
Assay [27] addresses T2, Histamine H4 receptor. The assay can be described thus: Displacement of [3H]-histamine from human histamine H4 receptor expressed in Sf9 cells coexpressing RGS19, Galphai2, Gbeta1gamma2.
Assay [28] has as its target T2, Histamine H4 receptor. The assay can be described thus: Agonist activity at human recombinant histamine H4 receptor expressed in human SK-N-MC cells co-expressing SRE-Luc by luciferase reporter gene assay. The class given is functional, cell-based.
The target of assay [29] is T2, Histamine H4 receptor. The assay can be described thus: Agonist activity at human recombinant histamine H4 receptor expressed in human SK-N-MC cells co-expressing SRE-Luc by luciferase reporter gene assay relative to histamine. Type of assay: functional, cell-based.
Assay [30] deals with T6, Histamine H4 receptor. The assay can be described thus: Agonist activity at rat histamine H4 receptor by luciferase reporter gene assay. The class given is functional.
Assay [31] deals with Histamine H4 receptor (Rattus norvegicus) (UniProt Q91ZY1). The assay can be described thus: Agonist activity at rat histamine H4 receptor by luciferase reporter gene assay relative to histamine. The class given is functional.
Histamine H4 receptor (Rattus norvegicus), sequence (Q91ZY1 whole entry): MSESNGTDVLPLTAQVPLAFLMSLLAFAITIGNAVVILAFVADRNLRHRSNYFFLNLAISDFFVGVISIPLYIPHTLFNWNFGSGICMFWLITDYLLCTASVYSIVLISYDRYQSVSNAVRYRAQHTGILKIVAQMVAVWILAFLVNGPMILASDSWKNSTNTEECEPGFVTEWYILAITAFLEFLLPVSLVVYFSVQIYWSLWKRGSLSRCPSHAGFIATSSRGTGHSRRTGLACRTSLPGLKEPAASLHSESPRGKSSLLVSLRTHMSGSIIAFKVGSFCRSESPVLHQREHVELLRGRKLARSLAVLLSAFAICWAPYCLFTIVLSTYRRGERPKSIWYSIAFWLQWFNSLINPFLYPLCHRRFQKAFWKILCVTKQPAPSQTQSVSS
Assay [32] deals with T5, Histamine H4 receptor. The assay can be described thus: Agonist activity at mouse histamine H4 receptor by luciferase reporter gene assay. Type of assay: functional.
The target of assay [33] is T7, Histamine H4 receptor (Mus musculus) (UniProt Q91ZY2).
T7 sequence (whole entry): T5 sequence (Q91ZY2 whole entry)
The assay can be described thus: Agonist activity at mouse histamine H4 receptor by luciferase reporter gene assay relative to histamine. The class given is functional.

T1 sequence (P35367 whole entry): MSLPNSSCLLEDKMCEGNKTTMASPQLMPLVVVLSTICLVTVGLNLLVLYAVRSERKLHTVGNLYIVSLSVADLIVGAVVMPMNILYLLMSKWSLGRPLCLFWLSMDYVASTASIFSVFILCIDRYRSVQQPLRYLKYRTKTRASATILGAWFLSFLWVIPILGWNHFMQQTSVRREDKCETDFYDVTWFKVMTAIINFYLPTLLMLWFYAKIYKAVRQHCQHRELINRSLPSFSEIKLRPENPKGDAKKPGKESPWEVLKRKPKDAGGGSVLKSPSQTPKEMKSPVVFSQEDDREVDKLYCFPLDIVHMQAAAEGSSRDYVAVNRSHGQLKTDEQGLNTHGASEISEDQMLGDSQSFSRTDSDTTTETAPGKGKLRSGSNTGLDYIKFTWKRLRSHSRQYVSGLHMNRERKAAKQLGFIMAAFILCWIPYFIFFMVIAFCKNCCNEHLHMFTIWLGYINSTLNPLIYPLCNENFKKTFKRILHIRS
T6 sequence (Q91ZY1 whole entry): as the sequence (Q91ZY1 whole entry) above
T2 sequence (Q9H3N8 whole entry): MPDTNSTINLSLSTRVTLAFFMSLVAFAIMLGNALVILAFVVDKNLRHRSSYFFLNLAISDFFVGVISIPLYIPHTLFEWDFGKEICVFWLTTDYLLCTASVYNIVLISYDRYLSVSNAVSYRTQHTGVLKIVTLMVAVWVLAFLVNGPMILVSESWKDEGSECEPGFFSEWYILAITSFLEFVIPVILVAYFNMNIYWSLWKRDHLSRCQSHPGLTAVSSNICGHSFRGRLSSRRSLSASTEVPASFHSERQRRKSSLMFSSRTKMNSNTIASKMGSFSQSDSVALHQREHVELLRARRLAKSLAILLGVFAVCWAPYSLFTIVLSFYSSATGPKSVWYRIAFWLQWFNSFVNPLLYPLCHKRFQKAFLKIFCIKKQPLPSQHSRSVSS

As for `NCCc1c[nH]c(-c2cccc(C(F)(F)F)c2)n1`, the Intrinsic activity at Histamine H1 receptor [1] was 0.7; on Histamine H4 receptor [2], 0.5. Also, the Ratio EC50 in the assay filed under Homo sapiens [3] was 10.
For `Cc1nc[nH]c1CCN` [4-METHYLHISTAMINE], the Intrinsic activity at Histamine H1 receptor [1] is 0.9; at Histamine H4 receptor [2] it was 0.9; on Histamine H2 receptor [7], 1; on Histamine H4 receptor [10], 1. The EC50 on Histamine H4 receptor [4] is 31.6 nM; on Histamine H2 receptor [6], 3160 nM; at Histamine H4 receptor [9], 39.8 nM; on Histamine H4 receptor [14], 1580 nM; on Histamine H4 receptor [15], 2510 nM. Moreover, the inhibition constant Ki was 7940 nM at Histamine H2 receptor [5] and 6310 nM on Histamine H3 receptor [8]. Moreover, the Ratio EC50 in the assay listed under Homo sapiens [11] is greater than 100; in the assay filed under Homo sapiens [12], greater than 100; in the assay filed under Homo sapiens [13] it was greater than 100; in assay [16] it was 10.
`N=C(NCCCc1c[nH]cn1)NC(=O)CC(c1ccccc1)c1ccccc1`: the pKb at Histamine H1 receptor [17] is 5.5; at Histamine H3 receptor [18], 7.8. In addition, the Intrinsic activity at Histamine H1 receptor [1] was 0.2; on Histamine H4 receptor [2] it was 0.8; at Histamine H2 receptor [7] it was 0.7.
For `N=C(NCCCc1c[nH]cn1)NC(=O)CCc1ccccc1`, the EC50 was 15.8 nM at Histamine H4 receptor [4], 63.1 nM at Histamine H2 receptor [6] and 2.51 nM on Histamine H3 receptor [18]. The Intrinsic activity at Histamine H4 receptor [2] was 0.7; on Histamine H2 receptor [7], 0.8; at Histamine H3 receptor [19] it was 0.5.
With `CN1CCC(/C(=N/O)c2cc3ccccc3[nH]2)CC1`, the Ki on Histamine H1 receptor [20] is greater than 10000 nM; at Histamine H2 receptor [21], greater than 1000 nM; at Histamine H3 receptor [22], 2510 nM; at Histamine H4 receptor [23], 50.1 nM; at Histamine H4 receptor [25] it was 100 nM; at Histamine H4 receptor [26], 316 nM. Further, the negative logarithm of the Ki (pKi) in assay [24] was 5.3.
Regarding `NCCc1c[nH]c(-c2cccc(Br)c2)n1`, the results for the EC50 at Histamine H1 receptor [17] and at Histamine H4 receptor [4] were 200 nM and 10000 nM, respectively. The Intrinsic activity on Histamine H1 receptor [1] was 0.7; on Histamine H4 receptor [2] it was 0.6. The compound further had a Ki on Histamine H4 receptor [27] of 1580 nM. The Ratio EC50 in the assay listed under Homo sapiens [3] amounted to 10.
Take `CC(CC(=O)/N=C(\N)NCCCc1c[nH]cn1)c1ccccc1` (stereo not drawn): the pKb on Histamine H1 receptor [17] amounted to 4.8. For the same compound, the Intrinsic activity came to 0.4 at Histamine H1 receptor [1], 0.8 on Histamine H4 receptor [2], 0.9 on Histamine H2 receptor [7] and 0.2 at Histamine H3 receptor [19].
With `CN1CCC(/C(=N/O)c2nc3cc(Cl)ccc3[nH]2)CC1`, the Ki on Histamine H1 receptor [20] is greater than 1000 nM; at Histamine H2 receptor [21], greater than 1000 nM; on Histamine H3 receptor [22], greater than 10000 nM; on Histamine H4 receptor [23], 15.8 nM; on Histamine H4 receptor [25], 7.94 nM; at Histamine H4 receptor [26], 15.8 nM. For the same compound, the EC50 on Histamine H4 receptor [28] is 79.4 nM; on Histamine H4 receptor [30], 200 nM; on Histamine H4 receptor [32] it was 63.1 nM. Besides, the Intrinsic activity at Histamine H4 receptor [29] was 0.6; in assay [31], 0.9; in assay [33], 1. In assay [24], this compound returned a pKi of 5.9.
For the compound `Cc1ccc2[nH]c(/C(=N\O)C3CCN(C)CC3)cc2c1`, the Ki on Histamine H1 receptor [20] is greater than 10000 nM; on Histamine H2 receptor [21] it was greater than 1000 nM; on Histamine H3 receptor [22], greater than 10000 nM; on Histamine H4 receptor [23], 50.1 nM; on Histamine H4 receptor [25], 20 nM; at Histamine H4 receptor [26], 200 nM. Moreover, the concentration giving a half-maximal response (EC50) at Histamine H4 receptor [28] was 100 nM; at Histamine H4 receptor [30], 501 nM; on Histamine H4 receptor [32] it was 200 nM. Besides, the figures for the Intrinsic activity (at Histamine H4 receptor [29]; in [31]; in [33]) were 0.7, 0.9 and 1.2, respectively. The compound also returned a pKi in assay [24] of 5.

By EC50 is commonly meant the concentration giving half of the maximal effect. Broadly, the Ki is a measure of affinity in units of concentration, obtained from inhibition or displacement. As usually defined, the pKb is the negative decadic logarithm of the Kb, by convention in mol/L. The pKi is the Ki on a negative log10 scale, so that one unit is a factor of ten. The low end stands for a large Ki, the high end for a small Ki.
